Laboratory results from US11046699B2, “Pyrazolo-pyrimidin-amino-cycloalkyl compounds and their therapeutic uses” (RAPT THERAPEUTICS, INC., priority 2018, dated 2021).
Read-outs that look alike come from different tables or passages of the source.

Target: GCN2 (Homo sapiens, UniProt Q9P2K8)
Test: GCN2 enzymatic endpoint assay: phosphorylation of GFP-eIF2α measured by TR-FRET (Lanthascreen)
Type: biochemical
How it was run: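 Endpoint GCN2 reaction with low ATP (2 μM) and 80 nM GFP-eIF2α, room temperature, 90 minutes. Detection mix with EDTA and Tb-labelled antibody; 520 nm/495 nm emission ratio reported.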

[1] = tested as described in Example 77, compound and/or hydrochloride, dihydrochloride or trifluoroacetic acid salt, read-out: IC 50 Activity
[2] = GCN2 biochemical IC50, 4 nM GCN2, 2 μM ATP, 80 nM GFP-eIF2α, 90 min RT, read-out: GCN2 activity

GCN2, sequence (Q9P2K8 whole entry): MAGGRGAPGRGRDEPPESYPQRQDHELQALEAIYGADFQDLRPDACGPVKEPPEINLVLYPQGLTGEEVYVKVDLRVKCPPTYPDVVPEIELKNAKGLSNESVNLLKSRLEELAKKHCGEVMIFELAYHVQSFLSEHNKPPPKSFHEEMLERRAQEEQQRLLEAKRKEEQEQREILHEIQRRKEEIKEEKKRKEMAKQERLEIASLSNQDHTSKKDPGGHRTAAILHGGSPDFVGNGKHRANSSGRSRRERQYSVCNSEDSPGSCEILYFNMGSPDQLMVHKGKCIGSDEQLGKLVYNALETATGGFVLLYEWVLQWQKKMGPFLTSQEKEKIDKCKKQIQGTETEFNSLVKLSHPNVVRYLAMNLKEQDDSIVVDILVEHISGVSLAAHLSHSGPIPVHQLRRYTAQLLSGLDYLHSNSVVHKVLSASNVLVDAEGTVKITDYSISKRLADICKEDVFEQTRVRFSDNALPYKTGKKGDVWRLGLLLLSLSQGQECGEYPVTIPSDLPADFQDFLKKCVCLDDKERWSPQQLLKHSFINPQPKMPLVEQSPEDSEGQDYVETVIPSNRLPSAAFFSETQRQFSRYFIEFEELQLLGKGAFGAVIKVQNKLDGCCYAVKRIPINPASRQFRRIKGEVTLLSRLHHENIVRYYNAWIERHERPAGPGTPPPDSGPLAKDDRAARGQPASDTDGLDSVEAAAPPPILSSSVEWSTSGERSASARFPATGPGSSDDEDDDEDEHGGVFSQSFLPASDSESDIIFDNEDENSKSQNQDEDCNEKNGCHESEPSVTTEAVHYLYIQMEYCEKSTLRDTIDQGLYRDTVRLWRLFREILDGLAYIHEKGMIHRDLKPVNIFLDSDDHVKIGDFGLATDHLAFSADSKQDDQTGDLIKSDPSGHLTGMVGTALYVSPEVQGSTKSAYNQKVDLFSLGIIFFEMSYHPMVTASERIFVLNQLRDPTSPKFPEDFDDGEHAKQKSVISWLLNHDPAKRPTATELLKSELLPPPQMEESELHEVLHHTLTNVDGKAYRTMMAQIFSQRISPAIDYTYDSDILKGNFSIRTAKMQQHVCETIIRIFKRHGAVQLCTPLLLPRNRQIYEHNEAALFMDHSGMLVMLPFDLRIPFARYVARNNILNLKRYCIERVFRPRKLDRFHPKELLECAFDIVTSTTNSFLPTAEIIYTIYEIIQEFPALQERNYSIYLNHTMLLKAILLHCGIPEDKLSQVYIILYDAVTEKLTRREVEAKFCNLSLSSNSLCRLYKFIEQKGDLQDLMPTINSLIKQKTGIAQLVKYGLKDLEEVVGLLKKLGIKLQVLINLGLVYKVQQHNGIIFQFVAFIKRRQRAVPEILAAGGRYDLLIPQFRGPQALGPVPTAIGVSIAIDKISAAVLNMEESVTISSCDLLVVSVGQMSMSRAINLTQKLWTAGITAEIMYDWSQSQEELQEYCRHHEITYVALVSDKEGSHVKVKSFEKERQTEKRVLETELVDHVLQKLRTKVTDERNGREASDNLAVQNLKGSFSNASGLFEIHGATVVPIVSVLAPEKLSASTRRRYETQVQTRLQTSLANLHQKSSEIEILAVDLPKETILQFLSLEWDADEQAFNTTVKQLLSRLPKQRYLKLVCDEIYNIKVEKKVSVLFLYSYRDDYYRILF

IC50 [1] [nM]	IC50 [2] [nM]	Compound
25 to 200		CNC(=O)[C@]1(C)CC[C@@H](Nc2ncc3c(Br)nn(-c4ccc(-c5nnc(CC(C)O)o5)cc4)c3n2)C1 (stereo partly drawn) [(1R,3R)-3-[[3-bromo-1-[4-[5-(2-hydroxy-propyl)-1,3,4-oxadiazol-2-yl]phenyl]pyrazolo [3,4-d]pyrimidin-6-yl]amino]-N,1-dimethyl-cyclopentanecarboxamide]
25 to 200		CNC(=O)[C@]1(C)CC[C@@H](Nc2ncc3c(Br)nn(-c4ccc5nc(OC)ccc5c4)c3n2)C1 [(1R,3R)-3-[[3-bromo-1-(2-methoxy-6-quinolyl)pyrazolo[3,4-d]pyrimidin-6-yl]amino]-N,1-dimethyl-cyclopentane-carboxamide]
	500 to 1000	COCCNC(=O)[C@@H]1CCC[C@@H](Nc2ncc3c(Br)nn(-c4ccc5ncccc5c4)c3n2)C1 [Example 20, (1R,3R)-3-((3-bromo-1-(quinolin-6-yl)-1H-pyrazolo[3,4-d]pyrimidin-6-yl)amino)-N-(2-methoxyethyl)cyclohexane-1-carboxamide]
25 to 200		CNC(=O)[C@]1(C)CC[C@@H](Nc2ncc3c(Br)nn(-c4ccc(-c5nnc(C(=O)N(C)CCN(C)C)s5)cc4)c3n2)C1 [5-[4-[3-bromo-6-[[(1R,3R)-3-methyl-3-(methylcarbamoyl)cyclopentyl]amino]pyrazolo[3,4-d]pyrimidin-1-yl]phenyl]-N-[2-(dimethylamino)ethyl]-N-methyl-1,3,4-thiadiazole-2-carboxamide]
25 to 200		Cc1nnc(-c2ccc(-n3nc(Br)c4cnc(NC5CC(P(C)(C)=O)C5)nc43)cc2)s1 (centres unmarked) [3-bromo-N-(3-dimethylphosphorylcyclo-butyl)-1-[4-(5-methyl-1,3,4-thiadiazol-2-yl)phenyl]pyrazolo[3,4-d]pyrimidin-6-amine]
25 to 200		CNC(=O)[C@]1(C)CC[C@@H](Nc2ncc3c(Br)nn(-c4ccc(C#N)c(CNS(C)(=O)=O)c4)c3n2)C1 [(1R,3R)-3-[[3-bromo-1-[4-cyano-3-(methanesulfonamidomethyl)phenyl]pyrazolo[3,4-d]pyrimidin-6-yl]amino]-N,1-dimethyl-cyclopentanecarboxamide]
	< 25	CNC(=O)[C@]1(C)CC[C@@H](Nc2ncc3c(Br)nn(-c4cc(CCN)c5ncccc5c4)c3n2)C1 [Example 32, (1R,3R)-3-((1-(8-(2-aminoethyl)quinolin-6-yl)-3-bromo-1H-pyrazolo[3,4-d]pyrimidin-6-yl)amino)-N,1-dimethylcyclopentane-1-carboxamide; 2,2,2-trifluoroacetic acid]
25 to 200		COC[C@H](C)NC(=O)[C@@H]1CC[C@@H](Nc2ncc3c(Br)nn(-c4ccc5ncccc5c4)c3n2)C1 [(1R,3R)-3-((3-bromo-1-(quinolin-6-yl)-1H-pyrazolo[3,4-d]pyrimidin-6-yl)amino)-N-((S)-1-methoxypropan-2-yl)cyclopentane-1-carboxamide]
25 to 200		C[C@@H]1CN(C(=O)[C@@H]2CC[C@@H](Nc3ncc4c(Br)nn(-c5ccc6ncccc6c5)c4n3)C2)CCO1 [((1R,3R)-3-((3-bromo-1-(quinolin-6-yl)-1H-pyrazolo[3,4-d]pyrimidin-6-yl)amino)cyclo-pentyl)((R)-2-methylmorpholino)methanone]
25 to 200		CNC(=O)[C@]1(C)CC[C@@H](Nc2ncc3c(Br)nn(-c4ccc(-c5ncco5)c(OCC5CNC5)c4)c3n2)C1 [(1R,3R)-3-[[1-[3-(azetidin-3-ylmethoxy)-4-oxazol-2-yl-phenyl]-3-bromo-pyrazolo [3,4-d]pyrimidin-6-yl]amino]-N,1-dimethyl-cyclopentanecarboxamide]
25 to 200		Cc1nnc(-c2ccc(-n3nc(Br)c4cnc(N[C@@H]5CC[C@@](C)(CO)C5)nc43)cc2)s1 [[(1R,3R)-3-[[3-bromo-1-[4-(5-methyl-1,3,4-thiadiazol-2-yl)phenyl]pyrazolo [3,4-d]pyrimidin-6-yl]amino]-1-methyl-cyclopentyl]methanol]
25 to 200		CC(CNC(=O)[C@@H]1CC[C@@H](Nc2ncc3c(Br)nn(-c4ccc5ncccc5c4)c3n2)C1)N1CCCC1 (stereo partly drawn) [(1R,3R)-3-((3-bromo-1-(quinolin-6-yl)-1H-pyrazolo[3,4-d]pyrimidin-6-yl)amino)-N-(2-(pyrrolidin-1-yl)propyl)cyclopentane-1-carboxamide]
	< 25	COCCNC(=O)[C@@H]1CC[C@@H](Nc2ncc3c(I)nn(-c4ccc5ncccc5c4)c3n2)C1 [Example 13, (1R,3R)-3-((3-iodo-1-(quinolin-6-yl)-1H-pyrazolo[3,4-d]pyrimidin-6-yl)amino)-N-(2-methoxyethyl)cyclopentane-1-carboxamide]
25 to 200		CNC(=O)[C@]1(C)CC[C@@H](Nc2ncc3c(Br)nn(-c4ccc(-c5ncco5)c(CCN5CCOCC5)c4)c3n2)C1 [(1R,3R)-3-[[3-bromo-1-[3-(2-morpholino-ethyl)-4-oxazol-2-yl-phenyl]pyrazolo [3,4-d]pyrimidin-6-yl]amino]-N,1-dimethyl-cyclopentanecarboxamide]
< 25		COC1(C)CN(C(=O)[C@]2(C)CC[C@@H](Nc3ncc4c(Br)nn(-c5cc(F)c6ncccc6c5)c4n3)C2)C1 [[(1R,3R)-3-[[3-bromo-1-(8-fluoro-6-quinolyl)pyrazolo[3,4-d]pyrimidin-6-yl]amino]-1-methyl-cyclopentyl]-(3-methoxy-3-methyl-azetidin-1-yl)methanone]
25 to 200		CNC(=O)[C@]1(CO)CC[C@@H](Nc2ncc3c(Br)nn(-c4ccc(-c5nnc(C)s5)cc4)c3n2)C1 [(1R,3R)-3-[[3-bromo-1-[4-(5-methyl-1,3,4-thiadiazol-2-yl)phenyl]pyrazolo [3,4-d]pyrimidin-6-yl]amino]-1-(hydroxymethyl)-N-methyl-cyclo-pentanecarboxamide]
25 to 200		CNC(=O)[C@]1(C)CC[C@@H](Nc2ncc3c(Br)nn(-c4ccc5c(c4)CCN(C(=O)C4CN(C)C4)C5)c3n2)C1 [(1R,3R)-3-[[3-bromo-1-[2-(1-methylazetidine-3-carbonyl)-3,4-dihydro-1H-isoquinolin-6-yl]pyrazolo[3,4-d]pyrimidin-6-yl]amino]-N,1-dimethyl-cyclopentanecarboxamide]
500 to 1000		COCCNC(=O)[C@@H]1CC[C@@H](Nc2ncc3c(Br)nn(-c4ccc5cn[nH]c5c4)c3n2)C1 [(1R,3R)-3-((3-bromo-1-(1H-indazol-6-yl)-1H-pyrazolo[3,4-d]pyrimidin-6-yl)amino)-N-(2-methoxyethyl)cyclopentane-1-carboxamide]
25 to 200		O=C([C@@H]1CC[C@@H](Nc2ncc3c(Br)nn(-c4ccc5ncccc5c4)c3n2)C1)N1CCN[C@@H](CCO)C1 [((1R,3R)-3-((3-bromo-1-(quinolin-6-yl)-1H-pyrazolo[3,4-d]pyrimidin-6-yl)amino)cyclo-pentyl)((S)-3-(2-hydroxyethyl)piperazin-1-yl) methanone]
25 to 200		CNC(=O)[C@]1(C)CCC(Nc2ncc3c(Br)nn(-c4ccc5nn(CCN)cc5c4)c3n2)C1 (stereo partly drawn) [(1R)-3-[[1-[2-(2-aminoethyl)indazol-5-yl]-3-bromo-pyrazolo[3,4-d]pyrimidin-6-yl]amino]-N,1-dimethyl-cyclopentane-carboxamide]
< 25		CN(C(=O)[C@]1(C)CC[C@@H](Nc2ncc3c(Br)nn(-c4cc(F)c5ncccc5c4)c3n2)C1)C(C)(C)CO [(1R,3R)-3-[[3-bromo-1-(8-fluoro-6-quinolyl)pyrazolo[3,4-d]pyrimidin-6-yl]amino]-N-(2-hydroxy-1,1-dimethyl-ethyl)-N,1-dimethyl-cyclopentanecarboxamide]
25 to 200		CNC(=O)C1(C)CC[C@@H](Nc2ncc3c(Br)nn(-c4ccc5nc(C(C)(C)O)ccc5c4)c3n2)C1 (stereo partly drawn) [(3R)-3-[[3-bromo-1-[2-(1-hydroxy-1-methyl-ethyl)-6-quinolyl]pyrazolo[3,4-d]pyrimidin-6-yl]amino]-N,1-dimethyl-cyclopentane-carboxamide]
25 to 200		CNC(=O)C1CCN(C(=O)[C@@H]2CC[C@@H](Nc3ncc4c(Br)nn(-c5cc(F)c6ncccc6c5)c4n3)C2)C1 (mixture of isomers)
25 to 200		CNC(=O)[C@]1(C)CC[C@@H](Nc2ncc3c(Br)nn(-c4cc(CO)c5nccnc5c4)c3n2)C1 [(1R,3R)-3-[[3-bromo-1-[8-(hydroxymethyl)quinoxalin-6-yl]pyrazolo[3,4-d]pyrimidin-6-yl]amino]-N,1-dimethyl-cyclopentane-carboxamide]
25 to 200		Fc1cc(-n2nc(Br)c3cnc(N[C@H]4CCOC4)nc32)cc2cccnc12 [3-bromo-1-(8-fluoro-6-quinolyl)-N-[(3S)-tetrahydrofuran-3-yl]pyrazolo [3,4-d]pyrimidin-6-amine]
	25 to 200	Cc1nnc(-c2ccc(-n3nc(Br)c4cnc(N[C@@H]5CC[C@@](C)(O)C5)nc43)cc2CCC#N)s1 [Example 76, 3-(5-(3-bromo-6-(((1R,3R)-3-hydroxy-3-methylcyclopentyl)amino)-1H-pyrazolo[3,4-d]pyrimidin-1-yl)-2-(5-methyl-1,3,4-thiadiazol-2-yl)phenyl)propanenitrile]
	25 to 200	CNC(=O)[C@]1(C)CC[C@@H](Nc2ncc3c(Br)nn(-c4ccc5ncc(C(C)(C)O)cc5c4)c3n2)C1 [Example 21, (1R,3R)-3-((3-bromo-1-(3-(2-hydroxypropan-2-yl)quinolin-6-yl)-1H-pyrazolo[3,4-d]pyrimidin-6-yl)amino)-N,1-dimethylcyclopentane-1-carboxamide]

Compound	IC50 [1] [nM]	IC50 [2] [nM]
CNC(=O)[C@]1(C#N)CC[C@@H](Nc2ncc3c(Br)nn(-c4ccc(-c5nnc(C)s5)c(CCC#N)c4)c3n2)C1	25 to 200	
CNC(=O)[C@]1(C)CC[C@@H](Nc2ncc3c(Br)nn(-c4cc(C#N)cc(CNS(C)(=O)=O)c4)c3n2)C1	25 to 200	
CNC(=O)[C@]1(C)CC[C@@H](Nc2ncc3c(Br)nn(-c4ccc5ncn(CCN)c(=O)c5c4)c3n2)C1	25 to 200	
Cc1nnc(-c2ccc(-n3nc(Br)c4cnc(N[C@@H]5CC[C@@](C)(N(C)C)C5)nc43)cc2)s1	25 to 200	
Cc1nnc(-c2ccc(-n3nc(Br)c4cnc(N[C@@H]5CC[C@@H](NC(=O)[C@@H]6CCCCN6)C5)nc43)cc2)s1	25 to 200	
